Read-outs that look alike come from different tables or passages of the source.

The source of these data is PMC9681850, “Structural basis of synthetic agonist activation of the nuclear receptor REV-ERB” (Nature Communications, 2022).

The subject of one data set is REV-ERBα. On the set-up: method as in ref 21 = [21]; 21. Bourotte, et al. Derivatives of 6-substituted triazolopyridazines as Rev-Erb agonists. (ed. States, U.) (United States, 2012). The conditions noted are these: enhancement of REV-ERBα/NCoR interaction, biochemical or cell-based assays; cited from earlier work.
Data set [1] in a line: mouse liver microsome stability assay. The data set is classed as in vitro ADME. The conditions noted are these: liver microsomes. From the text:
We thank the reviewers for the constructive comments, and we have responded to each of the […]
Overall, this is a commendable structure-function study on the transcriptional repressor, REV-ERBα. It includes the identification of an agonist that belongs to the non-heme class of small ligands. The study combines cell-based and in vitro, in vivo, and crystallographic analyses of the ligand-receptor molecular complex.
However, as a spring-board for therapeutic drug discovery, there are a few additional issues that may need to be clarified.
1. In the HEK293 2-hybrid assay, the ERB agonists are described as activators of transcription.
Perhaps, they would be more appropriately described as 'repressors'.
We have updated the manuscript to clarify this issue. In the original manuscript, we used the following to describe how the 2-hybrid assay switches agonists from repressors to activators to allow for better resolution of activity, “This format of the assay essentially functions as a mammalian 2-hybrid assay and detects REVERB agonists as activators of transcription effectively enhancing the sensitivity of such an assay from the typical one hybrid system that detects enhancement of transcriptional repression.” […]
Background: Microsomes from liver hold many membrane-bound enzymes, among them those of drug oxidation.

Data set [2] deals with T1, REV-ERBα LBD (Homo sapiens, UniProt P20393).
T1 sequence (P20393 284-614 limits assumed): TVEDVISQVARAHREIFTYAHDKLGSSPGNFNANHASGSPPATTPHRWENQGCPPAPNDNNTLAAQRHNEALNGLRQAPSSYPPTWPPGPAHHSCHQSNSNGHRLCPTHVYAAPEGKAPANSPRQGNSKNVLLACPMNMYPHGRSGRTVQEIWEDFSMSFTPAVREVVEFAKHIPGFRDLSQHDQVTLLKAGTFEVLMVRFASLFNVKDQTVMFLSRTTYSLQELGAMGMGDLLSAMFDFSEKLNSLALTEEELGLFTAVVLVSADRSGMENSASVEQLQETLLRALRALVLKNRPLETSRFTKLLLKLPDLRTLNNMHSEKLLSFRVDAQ
Nature of the data set: scintillation proximity radioligand binding assay with 3H-STL1267. More on the design: made in house. Conditions: SPA.

The target in the next data set is T2, REV-ERBα F488A (Homo sapiens, UniProt P20393, F488A).
T2 construct: WT or mutant Gal4DBD- full length REV-ERBα fusion and NCoR1-VP16 fusion protein; expressed in transfected cells; host or cells: HEK293 cells with Gal4UAS luciferase reporter stably integrated
The data set can be described thus: two-hybrid reporter assay with mutant receptor. Type of data set: cell-based. The conditions noted are these: F488A vs WT. The procedure:
The removal of the bulkier Phe488 sidechain may allow for the ligand binding pocket to wrap around the ligand more tightly, which may explain the higher activity of this mutant REV-ERB.
The NCoR-Vp16 plasmid and REV-ERBα/β-FL GAL4-DBD wild-type or point mutation plasmids were incubated with the transfection agent, Lipofectamine 2000. GFP plasmid was also in the transfection mix to confirm transfection efficiency. HEK cells were plated in 10 cm dishes for western blot analysis, and HEK UAS-luc cells were plated in 96 well plates for luciferase assay analysis. Prior to cellular adherence, transfection mix was added. The cells and transfection mix were incubated at 37 °C in a humidified atmosphere of 5% CO2. The transfection incubation lasted overnight for luciferase assays and 48 h for protein isolation/western blot analysis. For luciferase assays, REV-ERB agonists were added in an 11-point serial dilution the day following overnight transfection. Cells were incubated with the compound for 24 h, prior to luciferin addition and luminescence read out.
(In general: A reporter such as luciferase makes a cellular process visible.)

In the next data set the target is MR (Homo sapiens, UniProt P08235). The data set can be described thus: Gal4-UAS reporter assay for nuclear receptor specificity. The data set is classed as cell-based. The conditions noted are these: Gal4 DBD-NR, HEK293 cells, 10 µM. From the text: We assessed the specificity of STL1267 using both in house nuclear receptor Gal4-NR reporter assays and the NIMH Psychoactive Drug Screening Program (PDSP) assays. We assessed the specificity of STL1267 in the PDSP’s radioligand displacement assays, screening for binding to off-target GPCRs, ion channels, transporters, and other drug targets (Table S1). Of the 43 targets assessed in this panel, we observed no detectable binding in 41 of them. […] Additional assessment in serotonin transporter and kappa opioid receptor activity in a functional assay may be warranted to determine absolute specificity.
Receptor RLBA Ki Receptor activity
Suppl ementary Tabl e 1. Speci fi ci ty of STL1267. […]
HEK293 cells transfected with Gal4-UAS l uc i f eras e and […]

Data set [3] concerns the target T1, REV-ERBα LBD. The data set can be described thus: FRET assay of NCoR ID1 CoRNR box recruitment. Type of data set: biochemical. On the set-up: agonist-dependent recruitment of NCoR ID1 CoRNR box to the REV-ERBα-LBD. The procedure:
We noted a recent patent that described a series of REV-ERB agonists (6-substituted[1,2,4]triazolo[4,3-b]pyridazines) in assays that detected the ability of small molecules to enhance the interaction of REV-ERBα with NCoR either in biochemical or cell-based assays.
Histidine tagged REV-ERBα/β complexed with heme was added to each well to a final concentration of 4 nM. NCoR ID1 fluorescein (ref#PV4622, Batch# 1797468C) was added to each well to a final concentration of 150 nM, and terbium anti-histidine (ref#PV5895, batch 1730002B) was added to a final concentration of 1 nM. Mixture was incubated at room temperature on an orbital shaker for 1 h at 200 rpm. The lanthascreen assay protocol (Dual PMT, excitation 340 nm, dual emission 495/520, Gain 110/110) was used to read the plate.

T2 sequence (P20393 whole entry F488A, the tested form may be a part): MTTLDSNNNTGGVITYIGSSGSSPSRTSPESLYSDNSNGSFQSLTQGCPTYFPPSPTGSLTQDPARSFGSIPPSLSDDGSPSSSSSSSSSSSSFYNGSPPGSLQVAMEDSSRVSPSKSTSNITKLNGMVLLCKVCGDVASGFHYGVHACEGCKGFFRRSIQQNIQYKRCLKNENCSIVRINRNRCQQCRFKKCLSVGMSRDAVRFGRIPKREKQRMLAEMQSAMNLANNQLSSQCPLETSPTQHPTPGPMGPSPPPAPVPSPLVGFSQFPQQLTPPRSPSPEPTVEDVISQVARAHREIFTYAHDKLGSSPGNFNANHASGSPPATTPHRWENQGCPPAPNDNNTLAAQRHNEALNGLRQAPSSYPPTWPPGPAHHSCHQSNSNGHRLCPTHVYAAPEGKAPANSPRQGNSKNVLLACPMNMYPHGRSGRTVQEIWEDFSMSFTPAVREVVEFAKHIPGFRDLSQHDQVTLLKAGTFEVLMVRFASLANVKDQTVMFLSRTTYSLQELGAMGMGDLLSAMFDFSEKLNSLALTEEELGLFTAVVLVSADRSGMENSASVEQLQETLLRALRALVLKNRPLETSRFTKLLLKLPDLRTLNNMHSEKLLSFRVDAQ
T2 sequence (O75376 whole entry partner, the tested form may be a part): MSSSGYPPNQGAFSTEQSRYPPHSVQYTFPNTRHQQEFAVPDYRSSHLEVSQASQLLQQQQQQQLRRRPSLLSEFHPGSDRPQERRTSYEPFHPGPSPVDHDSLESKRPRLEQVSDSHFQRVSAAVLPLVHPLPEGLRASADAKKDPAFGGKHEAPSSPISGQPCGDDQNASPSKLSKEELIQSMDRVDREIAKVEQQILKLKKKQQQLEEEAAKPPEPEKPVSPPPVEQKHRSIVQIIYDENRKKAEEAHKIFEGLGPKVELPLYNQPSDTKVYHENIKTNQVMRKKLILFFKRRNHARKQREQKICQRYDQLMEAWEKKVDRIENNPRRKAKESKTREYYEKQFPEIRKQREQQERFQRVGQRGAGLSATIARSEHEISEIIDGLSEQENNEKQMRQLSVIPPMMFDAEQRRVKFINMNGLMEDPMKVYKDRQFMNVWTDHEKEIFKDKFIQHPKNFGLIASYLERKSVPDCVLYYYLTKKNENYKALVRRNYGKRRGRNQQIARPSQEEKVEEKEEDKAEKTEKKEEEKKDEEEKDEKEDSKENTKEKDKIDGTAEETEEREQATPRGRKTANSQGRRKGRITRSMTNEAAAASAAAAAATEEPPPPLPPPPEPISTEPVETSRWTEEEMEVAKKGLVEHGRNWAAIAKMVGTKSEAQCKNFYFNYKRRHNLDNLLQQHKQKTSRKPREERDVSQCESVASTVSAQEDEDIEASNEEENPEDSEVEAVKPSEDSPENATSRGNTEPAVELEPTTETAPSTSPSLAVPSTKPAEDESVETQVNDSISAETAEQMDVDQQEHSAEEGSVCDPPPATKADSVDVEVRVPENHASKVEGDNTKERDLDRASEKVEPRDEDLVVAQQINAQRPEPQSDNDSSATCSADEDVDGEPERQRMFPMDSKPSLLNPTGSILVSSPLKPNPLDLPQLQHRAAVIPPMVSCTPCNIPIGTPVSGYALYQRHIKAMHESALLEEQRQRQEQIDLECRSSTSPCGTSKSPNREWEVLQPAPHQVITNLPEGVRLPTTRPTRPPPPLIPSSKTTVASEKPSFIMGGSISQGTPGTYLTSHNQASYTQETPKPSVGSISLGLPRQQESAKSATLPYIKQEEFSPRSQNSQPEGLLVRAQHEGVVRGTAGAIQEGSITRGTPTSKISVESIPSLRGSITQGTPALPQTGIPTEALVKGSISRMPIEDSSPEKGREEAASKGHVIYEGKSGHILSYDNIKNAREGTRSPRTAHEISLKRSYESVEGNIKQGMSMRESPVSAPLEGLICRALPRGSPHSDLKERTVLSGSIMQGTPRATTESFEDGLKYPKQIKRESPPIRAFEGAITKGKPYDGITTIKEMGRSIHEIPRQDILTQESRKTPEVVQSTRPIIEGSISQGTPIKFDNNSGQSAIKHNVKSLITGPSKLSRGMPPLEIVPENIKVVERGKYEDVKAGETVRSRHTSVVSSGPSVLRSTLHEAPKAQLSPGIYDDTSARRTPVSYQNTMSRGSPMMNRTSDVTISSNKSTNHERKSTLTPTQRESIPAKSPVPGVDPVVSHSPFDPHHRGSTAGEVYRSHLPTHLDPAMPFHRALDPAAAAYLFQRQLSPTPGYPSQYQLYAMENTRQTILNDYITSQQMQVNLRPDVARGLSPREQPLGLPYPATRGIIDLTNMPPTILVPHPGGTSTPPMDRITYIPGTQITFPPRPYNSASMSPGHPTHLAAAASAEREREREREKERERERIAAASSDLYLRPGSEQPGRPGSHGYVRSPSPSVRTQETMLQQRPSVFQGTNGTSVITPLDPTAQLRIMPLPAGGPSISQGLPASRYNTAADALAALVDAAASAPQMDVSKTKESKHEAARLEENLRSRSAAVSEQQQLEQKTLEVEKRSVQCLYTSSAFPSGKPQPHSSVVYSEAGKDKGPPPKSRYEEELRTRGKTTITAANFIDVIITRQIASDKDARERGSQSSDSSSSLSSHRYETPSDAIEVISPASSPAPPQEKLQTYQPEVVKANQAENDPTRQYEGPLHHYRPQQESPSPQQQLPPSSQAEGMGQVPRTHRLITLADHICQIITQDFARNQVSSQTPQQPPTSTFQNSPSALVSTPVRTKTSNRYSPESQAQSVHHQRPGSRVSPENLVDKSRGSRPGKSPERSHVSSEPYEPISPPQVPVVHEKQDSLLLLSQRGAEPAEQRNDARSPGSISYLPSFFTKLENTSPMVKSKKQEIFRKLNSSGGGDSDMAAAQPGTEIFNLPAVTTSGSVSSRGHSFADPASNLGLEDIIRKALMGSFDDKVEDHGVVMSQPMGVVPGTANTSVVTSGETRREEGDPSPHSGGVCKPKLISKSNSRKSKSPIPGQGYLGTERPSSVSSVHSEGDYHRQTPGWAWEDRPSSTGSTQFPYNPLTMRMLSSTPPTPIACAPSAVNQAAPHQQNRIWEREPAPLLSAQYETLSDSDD
Sequence of MR (P08235 726-984 limits assumed): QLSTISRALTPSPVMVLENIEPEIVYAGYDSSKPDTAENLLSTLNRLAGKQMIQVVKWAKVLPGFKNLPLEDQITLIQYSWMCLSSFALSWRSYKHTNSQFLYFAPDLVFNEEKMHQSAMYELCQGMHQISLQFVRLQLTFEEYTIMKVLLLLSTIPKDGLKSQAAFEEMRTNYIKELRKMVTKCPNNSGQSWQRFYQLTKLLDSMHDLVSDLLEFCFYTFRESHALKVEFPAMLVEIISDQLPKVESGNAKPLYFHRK

Turning to `Clc1nnc2ccc(Oc3ccccc3-c3ccccc3)nn12` [STL1267], the potency in the data set with REV-ERBα is 0.1 to 0.3 µM. Besides, the half-life in data set [1] turned out to be 34 min. In addition, the Ki at REV-ERBα LBD [2] (REV-ERBα LBD, read-out: Ki, displacement of 3H-STL1267) came out at 160 nM. In addition, the “potency relative to SR9009 in the radioligand binding assay” value on REV-ERBα LBD [2] is recorded as 4.3 fold. For the same compound, the “effect of mutation on NCoR recruitment activity” value at REV-ERBα F488A is “impressive improvement in potency and efficacy”. Also, at MR, the activity result is reported as “did not detect activity”. Moreover, on REV-ERBα LBD [3], the “efficacy of NCoR ID1 recruitment relative to SR9009” value is listed as “roughly double” and the “potency relative to SR9009 in the FRET assay” value is on record as “more than ten times greater”. The same compound displayed an EC50 on REV-ERBα LBD [3] (REV-ERBα-LBD) of 130 nM. Further, the “potency relative to SR9009 in the FRET assay” value on REV-ERBα LBD [3] (listed as 1267) was found to be 14.6 fold.

Broadly, the half-life is how long it takes for the measured level to halve. Low readings indicate fast loss, high ones slow loss. The term Ki denotes a measure of affinity in units of concentration, obtained from inhibition or displacement. Broadly, the EC50 is the concentration giving half of the maximal effect.
